Data as given in US10538555B2, “Macrocyclic inhibitors of the PD-1/PD-L1 and CD80(B7-1)/PD-L1 protein/protein interactions” (BRISTOL-MYERS SQUIBB COMPANY, priority 2014, dated 2020).
Where a SMILES comes first, the peptide text is derived from it. Bridges are numbered along the chain shown (N, C = ends). [ ]: non-standard residue; d: D form. ξ: configuration not given here. Hyp = O=C(O)[C@@H]1C[C@@H](O)CN1; NMeNle = CCCC[C@H](NC)C(=O)O; hSer = N[C@@H](CCO)C(=O)O; NMeA = CN[C@@H](C)C(=O)O; Orn = NCCC[C@H](N)C(=O)O; Dab = NCC[C@H](N)C(=O)O; Dap = NC[C@H](N)C(=O)O; ξC = NC(CS)C(=O)O; Sar = CNCC(=O)O

The compounds below were run against T1, Human PD-L1/PD-1 (Homo sapiens, UniProt Q9NZQ7) (assay: HTRF Human PD-L1/PD-1 binding assay (PD-1-Ig/PD-L1-His)). Details: PD-L1-His 10 nM, PD-1-Ig 20 nM; class symbol; read-out: HTRF Human PD-L1/PD-1 Binding Assay IC50 Range.
T1 construct: TVMV protease cleavage site (C); made in house; host or cells: HEK293T cells
T1 sequence (Q9NZQ7 with tags, fused parts or gaps): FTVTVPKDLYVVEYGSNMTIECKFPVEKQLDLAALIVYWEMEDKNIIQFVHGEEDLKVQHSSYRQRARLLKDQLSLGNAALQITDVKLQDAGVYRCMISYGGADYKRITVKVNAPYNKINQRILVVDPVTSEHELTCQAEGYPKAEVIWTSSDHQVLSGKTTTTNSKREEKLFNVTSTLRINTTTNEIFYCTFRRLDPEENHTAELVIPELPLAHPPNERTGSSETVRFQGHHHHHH
In short: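 HTRF read-out (665/620 nm ratio) after 30 min equilibration with Eu-cryptate anti-Ig mAb (1 nM) and APC anti-His mAb (20 nM). Peptides preincubated 15 min with PD-L1-His (10 nM), then PD-1-Ig (20 nM) added for 15 min.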

IC50, 1 to 10 µM:
CCCC[C@H]1C(=O)N[C@@H](CC(N)=O)C(=O)N2CCC[C@H]2C(=O)N[C@@H](CO)C(=O)N[C@@H](CCO)C(=O)N2CCC[C@H]2C(=O)N[C@@H](Cc2c[nH]c3ccccc23)C(=O)N[C@@H](CCCN)C(=O)N[C@@H](Cc2c[nH]c3ccccc23)C(=O)N(C)[C@@H](C)C(=O)N(C)CC(=O)N[C@@H](CCCNC(=N)N)C(=O)NC(C(=O)NCC(N)=O)CSCC(=O)N[C@@H](Cc2ccc(O)cc2)C(=O)N1C (stereo partly shown) [Example 10204] ({CH2CO}-Y[NMeNle]NPS[hSer]PW[Orn]W[NMeA][Sar]R[ξC]G-NH2; thioether N-14)
CCCC[C@H]1C(=O)N[C@@H](CC(N)=O)C(=O)N2CCC[C@H]2C(=O)N[C@@H](CO)C(=O)N[C@@H](CCO)C(=O)N2C[C@H](O)C[C@H]2C(=O)N[C@@H](Cc2c[nH]c3ccccc23)C(=O)N[C@@H](CN)C(=O)N[C@@H](Cc2c[nH]c3ccccc23)C(=O)N(C)[C@@H](C)C(=O)N(C)CC(=O)N[C@@H](CCCNC(=N)N)C(=O)NC(C(=O)NCC(N)=O)CSCC(=O)N[C@@H](Cc2ccc(O)cc2)C(=O)N1C (stereo partly shown) [Example 10205] ({CH2CO}-Y[NMeNle]NPS[hSer][Hyp]W[Dap]W[NMeA][Sar]R[ξC]G-NH2; thioether N-14)
CCCC[C@H]1C(=O)N[C@@H](CC(N)=O)C(=O)N2CCC[C@H]2C(=O)N[C@@H](CO)C(=O)N[C@@H](CCO)C(=O)N2C[C@H](O)C[C@H]2C(=O)N[C@@H](Cc2c[nH]c3ccccc23)C(=O)N[C@@H](CCN)C(=O)N[C@@H](Cc2c[nH]c3ccccc23)C(=O)N(C)[C@@H](C)C(=O)N(C)CC(=O)N[C@@H](CCCNC(=N)N)C(=O)NC(C(=O)NCC(N)=O)CSCC(=O)N[C@@H](Cc2ccc(O)cc2)C(=O)N1C (stereo partly shown) [Example 10206] ({CH2CO}-Y[NMeNle]NPS[hSer][Hyp]W[Dab]W[NMeA][Sar]R[ξC]G-NH2; thioether N-14)
CCCC[C@H]1C(=O)N[C@@H](CC(N)=O)C(=O)N2CCC[C@H]2C(=O)N[C@@H](CO)C(=O)N[C@@H](CCO)C(=O)N2C[C@H](O)C[C@H]2C(=O)N[C@@H](Cc2c[nH]c3ccccc23)C(=O)N[C@@H](CCCN)C(=O)N[C@@H](Cc2c[nH]c3ccccc23)C(=O)N(C)[C@@H](C)C(=O)N(C)CC(=O)N[C@@H](CCCNC(=N)N)C(=O)NC(C(=O)NCC(N)=O)CSCC(=O)N[C@@H](Cc2ccc(O)cc2)C(=O)N1C (stereo partly shown) [Example 10207] ({CH2CO}-Y[NMeNle]NPS[hSer][Hyp]W[Orn]W[NMeA][Sar]R[ξC]G-NH2; thioether N-14)
CCCC[C@H]1C(=O)N[C@@H](CC(N)=O)C(=O)N2CCC[C@H]2C(=O)N[C@@H](CO)C(=O)N[C@@H](CCO)C(=O)N2CCC[C@H]2C(=O)N[C@@H](Cc2c[nH]c3ccccc23)C(=O)N[C@@H](CO)C(=O)N[C@@H](Cc2c[nH]c3ccccc23)C(=O)N(C)[C@@H](C)C(=O)N(C)[C@@H](C)C(=O)N[C@@H](CCCCN)C(=O)NC(C(=O)NCC(N)=O)CSCC(=O)N[C@@H](Cc2ccc(O)cc2)C(=O)N1C (stereo partly shown) [Example 10208] ({CH2CO}-Y[NMeNle]NPS[hSer]PWSW[NMeA][NMeA]K[ξC]G-NH2; thioether N-14)
CCCC[C@H]1C(=O)N[C@@H](CC(N)=O)C(=O)N2CCC[C@H]2C(=O)N[C@@H](CO)C(=O)N[C@@H](CCO)C(=O)N2CCC[C@H]2C(=O)N[C@@H](Cc2c[nH]c3ccccc23)C(=O)N[C@@H](CO)C(=O)N[C@@H](Cc2c[nH]c3ccccc23)C(=O)N(C)[C@@H](C)C(=O)N(C)[C@@H](C)C(=O)N[C@@H](CCC(=O)O)C(=O)NC(C(=O)NCC(N)=O)CSCC(=O)N[C@@H](Cc2ccc(O)cc2)C(=O)N1C (stereo partly shown) [Example 10209] ({CH2CO}-Y[NMeNle]NPS[hSer]PWSW[NMeA][NMeA]E[ξC]G-NH2; thioether N-14)
CCCC[C@H]1C(=O)N[C@@H](CC(N)=O)C(=O)N2CCC[C@H]2C(=O)N[C@@H](CO)C(=O)N[C@@H](CCO)C(=O)N2CCC[C@H]2C(=O)N[C@@H](Cc2c[nH]c3ccccc23)C(=O)N[C@@H](CO)C(=O)N[C@@H](Cc2c[nH]c3ccccc23)C(=O)N(C)[C@@H](C)C(=O)N(C)[C@@H](C)C(=O)N[C@@H](CCCN)C(=O)NC(C(=O)NCC(N)=O)CSCC(=O)N[C@@H](Cc2ccc(O)cc2)C(=O)N1C (stereo partly shown) [Example 10210] ({CH2CO}-Y[NMeNle]NPS[hSer]PWSW[NMeA][NMeA][Orn][ξC]G-NH2; thioether N-14)
CCCC[C@H]1C(=O)N[C@@H](CC(N)=O)C(=O)N2CCC[C@H]2C(=O)N[C@@H](CO)C(=O)N[C@@H](CCO)C(=O)N2C[C@H](O)C[C@H]2C(=O)N[C@@H](Cc2c[nH]c3ccccc23)C(=O)N[C@@H](CO)C(=O)N[C@@H](Cc2c[nH]c3ccccc23)C(=O)N(C)[C@@H](C)C(=O)N(C)[C@@H](C)C(=O)N[C@@H](CCCCN)C(=O)NC(C(=O)NCC(N)=O)CSCC(=O)N[C@@H](Cc2ccc(O)cc2)C(=O)N1C (stereo partly shown) [Example 10211] ({CH2CO}-Y[NMeNle]NPS[hSer][Hyp]WSW[NMeA][NMeA]K[ξC]G-NH2; thioether N-14)
CCCC[C@H]1C(=O)N[C@@H](CC(N)=O)C(=O)N2CCC[C@H]2C(=O)N[C@@H](CO)C(=O)N[C@@H](CCO)C(=O)N2C[C@H](O)C[C@H]2C(=O)N[C@@H](Cc2c[nH]c3ccccc23)C(=O)N[C@@H](CO)C(=O)N[C@@H](Cc2c[nH]c3ccccc23)C(=O)N(C)[C@@H](C)C(=O)N(C)[C@@H](C)C(=O)N[C@@H](CCC(=O)O)C(=O)NC(C(=O)NCC(N)=O)CSCC(=O)N[C@@H](Cc2ccc(O)cc2)C(=O)N1C (stereo partly shown) [Example 10212] ({CH2CO}-Y[NMeNle]NPS[hSer][Hyp]WSW[NMeA][NMeA]E[ξC]G-NH2; thioether N-14)
CCCC[C@H]1C(=O)N[C@@H](CC(N)=O)C(=O)N2CCC[C@H]2C(=O)N[C@@H](CO)C(=O)N[C@@H](CCO)C(=O)N2C[C@H](O)C[C@H]2C(=O)N[C@@H](Cc2c[nH]c3ccccc23)C(=O)N[C@@H](CO)C(=O)N[C@@H](Cc2c[nH]c3ccccc23)C(=O)N(C)[C@@H](C)C(=O)N(C)[C@@H](C)C(=O)N[C@@H](CCCN)C(=O)NC(C(=O)NCC(N)=O)CSCC(=O)N[C@@H](Cc2ccc(O)cc2)C(=O)N1C (stereo partly shown) [Example 10213] ({CH2CO}-Y[NMeNle]NPS[hSer][Hyp]WSW[NMeA][NMeA][Orn][ξC]G-NH2; thioether N-14)
CCCC[C@H]1C(=O)N[C@@H](CC(N)=O)C(=O)N2CCC[C@H]2C(=O)N[C@@H](CO)C(=O)N[C@@H](CCO)C(=O)N2CCC[C@H]2C(=O)N[C@@H](Cc2c[nH]c3ccccc23)C(=O)N[C@@H](CCO)C(=O)N[C@@H](Cc2c[nH]c3ccccc23)C(=O)N(C)[C@@H](C)C(=O)N(C)[C@@H](C)C(=O)N[C@@H](CCCCN)C(=O)NC(C(=O)NCC(N)=O)CSCC(=O)N[C@@H](Cc2ccc(O)cc2)C(=O)N1C (stereo partly shown) [Example 10214] ({CH2CO}-Y[NMeNle]NPS[hSer]PW[hSer]W[NMeA][NMeA]K[ξC]G-NH2; thioether N-14)
CCCC[C@H]1C(=O)N[C@@H](CC(N)=O)C(=O)N2CCC[C@H]2C(=O)N[C@@H](CO)C(=O)N[C@@H](CCO)C(=O)N2CCC[C@H]2C(=O)N[C@@H](Cc2c[nH]c3ccccc23)C(=O)N[C@@H](CCO)C(=O)N[C@@H](Cc2c[nH]c3ccccc23)C(=O)N(C)[C@@H](C)C(=O)N(C)[C@@H](C)C(=O)N[C@@H](CCC(=O)O)C(=O)NC(C(=O)NCC(N)=O)CSCC(=O)N[C@@H](Cc2ccc(O)cc2)C(=O)N1C (stereo partly shown) [Example 10215] ({CH2CO}-Y[NMeNle]NPS[hSer]PW[hSer]W[NMeA][NMeA]E[ξC]G-NH2; thioether N-14)
CCCC[C@H]1C(=O)N[C@@H](CC(N)=O)C(=O)N2CCC[C@H]2C(=O)N[C@@H](CO)C(=O)N[C@@H](CCO)C(=O)N2CCC[C@H]2C(=O)N[C@@H](Cc2c[nH]c3ccccc23)C(=O)N[C@@H](CCO)C(=O)N[C@@H](Cc2c[nH]c3ccccc23)C(=O)N(C)[C@@H](C)C(=O)N(C)[C@@H](C)C(=O)N[C@@H](CCCN)C(=O)NC(C(=O)NCC(N)=O)CSCC(=O)N[C@@H](Cc2ccc(O)cc2)C(=O)N1C (stereo partly shown) [Example 10216] ({CH2CO}-Y[NMeNle]NPS[hSer]PW[hSer]W[NMeA][NMeA][Orn][ξC]G-NH2; thioether N-14)
CCCC[C@H]1C(=O)N[C@@H](CC(N)=O)C(=O)N2CCC[C@H]2C(=O)N[C@@H](CO)C(=O)N[C@@H](CCO)C(=O)N2C[C@H](O)C[C@H]2C(=O)N[C@@H](Cc2c[nH]c3ccccc23)C(=O)N[C@@H](CCO)C(=O)N[C@@H](Cc2c[nH]c3ccccc23)C(=O)N(C)[C@@H](C)C(=O)N(C)[C@@H](C)C(=O)N[C@@H](CCCCN)C(=O)NC(C(=O)NCC(N)=O)CSCC(=O)N[C@@H](Cc2ccc(O)cc2)C(=O)N1C (stereo partly shown) [Example 10217] ({CH2CO}-Y[NMeNle]NPS[hSer][Hyp]W[hSer]W[NMeA][NMeA]K[ξC]G-NH2; thioether N-14)
CCCC[C@H]1C(=O)N[C@@H](CC(N)=O)C(=O)N2CCC[C@H]2C(=O)N[C@@H](CO)C(=O)N[C@@H](CCO)C(=O)N2C[C@H](O)C[C@H]2C(=O)N[C@@H](Cc2c[nH]c3ccccc23)C(=O)N[C@@H](CCO)C(=O)N[C@@H](Cc2c[nH]c3ccccc23)C(=O)N(C)[C@@H](C)C(=O)N(C)[C@@H](C)C(=O)N[C@@H](CCC(=O)O)C(=O)NC(C(=O)NCC(N)=O)CSCC(=O)N[C@@H](Cc2ccc(O)cc2)C(=O)N1C (stereo partly shown) [Example 10218] ({CH2CO}-Y[NMeNle]NPS[hSer][Hyp]W[hSer]W[NMeA][NMeA]E[ξC]G-NH2; thioether N-14)
CCCC[C@H]1C(=O)N[C@@H](CC(N)=O)C(=O)N2CCC[C@H]2C(=O)N[C@@H](CO)C(=O)N[C@@H](CCO)C(=O)N2C[C@H](O)C[C@H]2C(=O)N[C@@H](Cc2c[nH]c3ccccc23)C(=O)N[C@@H](CCO)C(=O)N[C@@H](Cc2c[nH]c3ccccc23)C(=O)N(C)[C@@H](C)C(=O)N(C)[C@@H](C)C(=O)N[C@@H](CCCN)C(=O)NC(C(=O)NCC(N)=O)CSCC(=O)N[C@@H](Cc2ccc(O)cc2)C(=O)N1C (stereo partly shown) [Example 10219] ({CH2CO}-Y[NMeNle]NPS[hSer][Hyp]W[hSer]W[NMeA][NMeA][Orn][ξC]G-NH2; thioether N-14)
